Measurements from ChEMBL document CHEMBL3991601, “The target landscape of clinical kinase drugs” (Science, 2017).
Activity calls are given as the source filed them. For most assays here, no stated cut-off is given here; in the data, actives have a measured Kd and inactives only a lower limit.

Tests used:
[1] = target: GTP-binding nuclear protein Ran (Homo sapiens, UniProt P62826)
[2] = target: T1, Serine/threonine-protein kinase LATS1 (Homo sapiens, UniProt O95835)
T1 sequence (O95835 whole entry): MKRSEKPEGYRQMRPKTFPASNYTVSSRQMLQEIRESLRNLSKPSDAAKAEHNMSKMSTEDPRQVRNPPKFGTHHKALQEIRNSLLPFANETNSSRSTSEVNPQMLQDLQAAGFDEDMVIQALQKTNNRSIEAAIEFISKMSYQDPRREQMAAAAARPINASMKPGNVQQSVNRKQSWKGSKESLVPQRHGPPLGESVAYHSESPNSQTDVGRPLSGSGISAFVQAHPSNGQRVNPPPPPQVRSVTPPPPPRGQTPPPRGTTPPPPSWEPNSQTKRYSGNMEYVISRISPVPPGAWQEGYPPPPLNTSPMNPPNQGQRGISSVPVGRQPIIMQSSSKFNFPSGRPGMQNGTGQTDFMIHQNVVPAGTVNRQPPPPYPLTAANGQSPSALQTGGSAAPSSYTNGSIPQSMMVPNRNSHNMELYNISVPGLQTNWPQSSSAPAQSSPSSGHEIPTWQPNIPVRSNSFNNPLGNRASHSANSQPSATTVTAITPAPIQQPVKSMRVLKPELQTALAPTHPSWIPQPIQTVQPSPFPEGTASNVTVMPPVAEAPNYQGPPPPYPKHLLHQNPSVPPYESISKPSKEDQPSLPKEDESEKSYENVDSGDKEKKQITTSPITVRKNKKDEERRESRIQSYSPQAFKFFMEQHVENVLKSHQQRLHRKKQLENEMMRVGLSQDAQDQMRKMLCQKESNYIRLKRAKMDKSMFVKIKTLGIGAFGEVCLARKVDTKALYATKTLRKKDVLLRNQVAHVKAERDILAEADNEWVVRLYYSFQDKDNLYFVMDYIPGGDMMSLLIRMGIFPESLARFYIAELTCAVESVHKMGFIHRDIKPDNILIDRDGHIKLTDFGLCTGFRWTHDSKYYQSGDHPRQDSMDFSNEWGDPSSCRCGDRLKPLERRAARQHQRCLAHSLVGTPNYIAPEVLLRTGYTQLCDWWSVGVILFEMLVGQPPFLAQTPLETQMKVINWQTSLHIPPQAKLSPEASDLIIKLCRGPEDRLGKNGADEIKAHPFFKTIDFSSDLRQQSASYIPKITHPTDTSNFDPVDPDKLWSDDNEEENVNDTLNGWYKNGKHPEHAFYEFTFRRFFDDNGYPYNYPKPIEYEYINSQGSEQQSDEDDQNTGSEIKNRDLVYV

Ephrin type-B receptor 2 = target: T2, Ephrin type-B receptor 2 (Homo sapiens, UniProt P29323)
T2 sequence (P29323 whole entry): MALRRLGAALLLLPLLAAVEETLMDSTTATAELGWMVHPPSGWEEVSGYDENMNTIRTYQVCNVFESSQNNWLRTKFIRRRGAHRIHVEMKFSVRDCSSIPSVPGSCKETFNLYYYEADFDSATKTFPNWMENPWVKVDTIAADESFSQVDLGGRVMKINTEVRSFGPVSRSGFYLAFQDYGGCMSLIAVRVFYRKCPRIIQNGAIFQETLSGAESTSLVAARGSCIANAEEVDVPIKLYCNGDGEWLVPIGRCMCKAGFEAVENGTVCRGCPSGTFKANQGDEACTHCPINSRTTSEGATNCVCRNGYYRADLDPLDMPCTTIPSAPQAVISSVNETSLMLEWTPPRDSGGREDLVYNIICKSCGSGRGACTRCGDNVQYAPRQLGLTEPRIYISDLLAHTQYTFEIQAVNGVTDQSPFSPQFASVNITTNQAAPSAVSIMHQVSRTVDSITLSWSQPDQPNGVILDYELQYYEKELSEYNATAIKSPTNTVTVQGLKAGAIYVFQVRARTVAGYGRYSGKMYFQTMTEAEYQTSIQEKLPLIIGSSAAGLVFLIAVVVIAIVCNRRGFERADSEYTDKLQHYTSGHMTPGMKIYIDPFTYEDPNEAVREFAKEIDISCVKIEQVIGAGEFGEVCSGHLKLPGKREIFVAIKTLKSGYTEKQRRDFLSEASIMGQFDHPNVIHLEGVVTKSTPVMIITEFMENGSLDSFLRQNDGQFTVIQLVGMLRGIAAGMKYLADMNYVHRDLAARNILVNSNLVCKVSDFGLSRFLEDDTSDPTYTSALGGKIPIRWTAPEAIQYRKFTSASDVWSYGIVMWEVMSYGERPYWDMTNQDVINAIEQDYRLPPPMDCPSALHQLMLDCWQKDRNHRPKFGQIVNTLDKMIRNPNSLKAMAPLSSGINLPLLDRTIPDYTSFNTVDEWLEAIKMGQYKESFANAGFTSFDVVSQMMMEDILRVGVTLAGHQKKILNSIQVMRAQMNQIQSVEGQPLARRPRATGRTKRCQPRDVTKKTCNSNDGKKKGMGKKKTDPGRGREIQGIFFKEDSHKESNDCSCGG

[3] = target: Tyrosine-protein kinase FRK (Homo sapiens, UniProt P42685)
Chain of Tyrosine-protein kinase FRK (P42685 whole entry): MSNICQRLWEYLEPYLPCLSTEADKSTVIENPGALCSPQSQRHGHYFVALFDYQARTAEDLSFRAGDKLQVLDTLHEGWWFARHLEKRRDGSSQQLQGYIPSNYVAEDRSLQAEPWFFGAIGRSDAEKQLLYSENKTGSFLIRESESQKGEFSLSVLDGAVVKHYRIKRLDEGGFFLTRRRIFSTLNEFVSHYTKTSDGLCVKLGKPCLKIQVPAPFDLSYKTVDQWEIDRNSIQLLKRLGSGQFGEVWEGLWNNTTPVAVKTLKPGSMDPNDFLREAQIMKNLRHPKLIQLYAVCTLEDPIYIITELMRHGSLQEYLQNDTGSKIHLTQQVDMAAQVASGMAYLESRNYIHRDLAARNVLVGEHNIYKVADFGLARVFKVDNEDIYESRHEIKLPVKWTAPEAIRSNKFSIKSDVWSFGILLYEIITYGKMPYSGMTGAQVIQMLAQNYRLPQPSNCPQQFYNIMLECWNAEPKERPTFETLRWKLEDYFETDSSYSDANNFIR

Activin receptor type-2B = Activin receptor type-2B (Homo sapiens, UniProt Q13705)
Chain of Activin receptor type-2B (Q13705 whole entry): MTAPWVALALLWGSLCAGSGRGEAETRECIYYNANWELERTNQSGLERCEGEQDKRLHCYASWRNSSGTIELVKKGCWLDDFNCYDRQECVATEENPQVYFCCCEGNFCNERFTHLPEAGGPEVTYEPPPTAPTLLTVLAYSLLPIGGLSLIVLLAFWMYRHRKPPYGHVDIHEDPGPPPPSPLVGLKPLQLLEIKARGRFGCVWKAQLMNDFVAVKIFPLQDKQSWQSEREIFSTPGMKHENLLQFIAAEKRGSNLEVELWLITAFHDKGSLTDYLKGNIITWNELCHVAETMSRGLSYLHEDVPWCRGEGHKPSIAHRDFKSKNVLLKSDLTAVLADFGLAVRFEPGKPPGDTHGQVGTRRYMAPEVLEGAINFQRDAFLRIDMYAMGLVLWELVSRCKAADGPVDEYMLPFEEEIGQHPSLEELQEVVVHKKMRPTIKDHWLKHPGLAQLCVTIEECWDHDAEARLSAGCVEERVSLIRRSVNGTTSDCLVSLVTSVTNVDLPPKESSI

[4] = target: Mitogen-activated protein kinase kinase kinase 20 (Homo sapiens, UniProt Q9NYL2)
Chain of Mitogen-activated protein kinase kinase kinase 20 (Q9NYL2 whole entry): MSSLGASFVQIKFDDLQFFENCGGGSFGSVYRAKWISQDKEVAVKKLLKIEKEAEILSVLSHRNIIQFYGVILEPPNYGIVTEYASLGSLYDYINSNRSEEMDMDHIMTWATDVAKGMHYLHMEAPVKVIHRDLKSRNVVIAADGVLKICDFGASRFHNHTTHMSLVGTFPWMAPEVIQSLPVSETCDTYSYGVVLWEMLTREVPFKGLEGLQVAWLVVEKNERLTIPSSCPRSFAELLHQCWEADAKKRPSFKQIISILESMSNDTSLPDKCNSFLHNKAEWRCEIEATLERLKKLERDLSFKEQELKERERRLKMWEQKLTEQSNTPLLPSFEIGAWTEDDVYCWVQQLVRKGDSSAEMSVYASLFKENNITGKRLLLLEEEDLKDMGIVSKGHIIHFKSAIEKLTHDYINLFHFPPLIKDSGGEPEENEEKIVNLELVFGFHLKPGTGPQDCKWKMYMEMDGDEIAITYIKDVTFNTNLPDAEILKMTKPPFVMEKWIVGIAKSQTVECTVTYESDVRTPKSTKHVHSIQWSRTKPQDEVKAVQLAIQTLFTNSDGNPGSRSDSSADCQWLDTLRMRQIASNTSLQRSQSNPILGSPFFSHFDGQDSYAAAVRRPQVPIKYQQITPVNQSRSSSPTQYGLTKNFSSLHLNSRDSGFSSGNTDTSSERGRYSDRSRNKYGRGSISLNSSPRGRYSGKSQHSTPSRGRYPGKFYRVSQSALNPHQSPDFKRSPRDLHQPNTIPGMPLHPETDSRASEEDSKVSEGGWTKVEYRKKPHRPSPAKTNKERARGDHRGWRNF

[5] = target: Protein kinase C alpha type (Homo sapiens, UniProt P17252)
[6] = target: T3, Signal recognition particle receptor subunit alpha (Homo sapiens, UniProt P08240)
T3 sequence (P08240 whole entry): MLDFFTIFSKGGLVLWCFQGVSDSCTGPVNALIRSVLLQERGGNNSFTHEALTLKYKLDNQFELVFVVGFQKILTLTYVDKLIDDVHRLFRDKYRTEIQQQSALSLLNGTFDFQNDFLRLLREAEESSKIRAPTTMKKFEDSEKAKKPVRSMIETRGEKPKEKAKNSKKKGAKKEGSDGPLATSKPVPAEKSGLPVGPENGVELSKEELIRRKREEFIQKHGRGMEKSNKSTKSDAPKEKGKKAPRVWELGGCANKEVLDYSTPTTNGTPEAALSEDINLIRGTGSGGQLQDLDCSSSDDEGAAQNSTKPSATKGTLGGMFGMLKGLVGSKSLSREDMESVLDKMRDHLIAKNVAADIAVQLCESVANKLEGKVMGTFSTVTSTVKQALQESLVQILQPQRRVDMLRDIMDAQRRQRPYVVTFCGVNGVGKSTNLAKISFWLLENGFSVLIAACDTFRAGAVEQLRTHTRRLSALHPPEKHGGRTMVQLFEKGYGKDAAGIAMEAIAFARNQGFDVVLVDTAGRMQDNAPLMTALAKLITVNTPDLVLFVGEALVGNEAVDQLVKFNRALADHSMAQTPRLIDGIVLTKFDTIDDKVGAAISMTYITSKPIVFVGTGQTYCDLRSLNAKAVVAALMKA

Kd [1]	Kd [5]	Kd [6]	SMILES	Kd [2]	Kd (Ephrin type-B receptor 2)	Kd [3]	Kd (Activin receptor type-2B)	Kd [4]
> 30 µM (inactive)	> 30 µM (inactive)	–	CCN(CCCOc1ccc2c(Nc3cc(CC(=O)Nc4cccc(F)c4)n[nH]3)ncnc2c1)CCOP(=O)(O)O [BARASERTIB]	> 30 µM (inactive)	> 30 µM (inactive)	> 30 µM (inactive)	> 30 µM (inactive)	> 30 µM (inactive)
> 30 µM (inactive)	> 30 µM (inactive)	> 30 µM (inactive)	O=C(NOC[C@H](O)CO)c1ccc(F)c(F)c1Nc1ccc(I)cc1F [MIRDAMETINIB]	–	> 30 µM (inactive)	> 30 µM (inactive)	> 30 µM (inactive)	> 30 µM (inactive)
> 30 µM (inactive)	> 30 µM (inactive)	> 30 µM (inactive)	COc1cc2c(Oc3ccc4[nH]c(C)cc4c3F)ncnc2cc1OCCCN1CCCC1 [CEDIRANIB]	–	–	–	–	–
> 30 µM (inactive)	> 30 µM (inactive)	–	COc1ccc(-c2ccc3ncc4c(c3c2)n(-c2ccc(N3CCNCC3)c(C(F)(F)F)c2)c(=O)n4C)cn1 [BGT-226 FREE BASE]	> 30 µM (inactive)	> 30 µM (inactive)	> 30 µM (inactive)	> 30 µM (inactive)	> 30 µM (inactive)
–	> 30 µM (inactive)	> 30 µM (inactive)	COc1cc2c(N3CCN(C(=O)Nc4ccc(OC(C)C)cc4)CC3)ncnc2cc1OCCCN1CCCCC1 [TANDUTINIB]	–	–	–	–	–
> 30 µM (inactive)	> 30 µM (inactive)	> 30 µM (inactive)	CC1(C)CNc2cc(NC(=O)c3cccnc3NCc3ccncc3)ccc21 [MOTESANIB]	–	–	–	–	–
> 30 µM (inactive)	> 30 µM (inactive)	> 30 µM (inactive)	Cn1cnc2c(F)c(Nc3ccc(Br)cc3Cl)c(C(=O)NOCCO)cc21 [SELUMETINIB]	–	–	–	–	–
> 30 µM (inactive)	1.56 µM (active)	–	COc1cccc(Nc2ncnn3ccc(CN4CC[C@@H](N)[C@H](O)C4)c23)c1 [BMS-690514]	> 30 µM (inactive)	> 30 µM (inactive)	0.795 µM (active)	> 30 µM (inactive)	0.282 µM (active)
> 30 µM (inactive)	> 30 µM (inactive)	> 30 µM (inactive)	C[C@@]1(C(=O)Nc2ccc(F)nc2)CCCN1c1nc(Nc2cc(C3CC3)n[nH]2)c2cccn2n1 [BMS-754807]	–	–	–	–	–
> 30 µM (inactive)	> 30 µM (inactive)	> 30 µM (inactive)	Cn1c(=O)n(-c2ccc(C(C)(C)C#N)cc2)c2c3cc(-c4cnc5ccccc5c4)ccc3ncc21 [DACTOLISIB]	–	> 30 µM (inactive)	> 30 µM (inactive)	> 30 µM (inactive)	> 30 µM (inactive)
> 30 µM (inactive)	> 30 µM (inactive)	> 30 µM (inactive)	CN(C)C/C=C/C(=O)Nc1cc2c(Nc3ccc(F)c(Cl)c3)ncnc2cc1O[C@H]1CCOC1 [AFATINIB]	–	–	–	–	–

SMILES	Kd [1]	Kd [5]	Kd [6]	Kd [2]	Kd (Ephrin type-B receptor 2)	Kd [3]	Kd (Activin receptor type-2B)	Kd [4]
N#CCNC(=O)c1ccc(-c2ccnc(Nc3ccc(N4CCOCC4)cc3)n2)cc1 [MOMELOTINIB]	> 30 µM (inactive)	> 30 µM (inactive)	> 30 µM (inactive)	–	> 30 µM (inactive)	> 30 µM (inactive)	> 30 µM (inactive)	–
COc1cc(F)c(F)c(Nc2ccc(I)cc2F)c1NS(=O)(=O)C1(C[C@H](O)CO)CC1 [REFAMETINIB]	> 30 µM (inactive)	> 30 µM (inactive)	–	> 30 µM (inactive)	> 30 µM (inactive)	> 30 µM (inactive)	> 30 µM (inactive)	> 30 µM (inactive)
CC1(COc2ccc3c(c2)ncn3-c2ccc3cccc(N4CCC(N)CC4)c3n2)COC1 [CRENOLANIB]	> 30 µM (inactive)	> 30 µM (inactive)	–	2.77 µM (active)	> 30 µM (inactive)	> 30 µM (inactive)	> 30 µM (inactive)	> 30 µM (inactive)
CC(C)CC(=O)Nc1[nH]nc2c1CN(C(=O)C1CCN(C)CC1)C2(C)C [PHA-793887]	> 30 µM (inactive)	> 30 µM (inactive)	–	> 30 µM (inactive)	> 30 µM (inactive)	> 30 µM (inactive)	> 30 µM (inactive)	> 30 µM (inactive)
Cc1c(NC(=O)OC[C@@H]2COCCN2)cn2ncnc(Nc3ccc4c(cnn4Cc4cccc(F)c4)c3)c12 [AC-480]	> 30 µM (inactive)	> 30 µM (inactive)	–	> 30 µM (inactive)	> 30 µM (inactive)	> 30 µM (inactive)	> 30 µM (inactive)	> 30 µM (inactive)
C[C@]1(O)C[C@@H](c2nc(-c3ccc4ccc(-c5ccccc5)nc4c3)c3c(N)nccn32)C1 [LINSITINIB]	> 30 µM (inactive)	–	> 30 µM (inactive)	–	> 30 µM (inactive)	–	> 30 µM (inactive)	–
O=S(=O)(c1cccc2cnccc12)N1CCCNCC1 [FASUDIL]	–	> 30 µM (inactive)	> 30 µM (inactive)	–	> 30 µM (inactive)	> 30 µM (inactive)	> 30 µM (inactive)	> 30 µM (inactive)
C=CCN(/C=C1/C(=O)O[C@H](COC)[C@@]2(C)C1=C(O)C(=O)C1=C2[C@H](OC(C)=O)C[C@]2(C)C(=O)CC[C@@H]12)CC=C [SONOLISIB]	> 30 µM (inactive)	> 30 µM (inactive)	–	> 30 µM (inactive)	> 30 µM (inactive)	> 30 µM (inactive)	> 30 µM (inactive)	> 30 µM (inactive)
CN1CCN(c2nc(C3=C(c4c[nH]c5ccccc45)C(=O)NC3=O)c3ccccc3n2)CC1 [SOTRASTAURIN]	> 30 µM (inactive)	–	–	> 30 µM (inactive)	> 30 µM (inactive)	> 30 µM (inactive)	> 30 µM (inactive)	> 30 µM (inactive)
